In PubChem BioAssay (NCI):
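Cells were grown in 96-well plates and exposed to each compound for 48 hours at five concentrations; endpoints were interpolated linearly between bracketing concentrations, or set to the highest concentration if not reached. GI50: concentration for 50% inhibition of growth. TGI: concentration producing complete growth inhibition.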

Experiments:
Test in all cases: DTP human tumour cell line panel, 48 h
T-47D breast = test system: T-47D breast
RXF 393 renal = test system: RXF 393 renal
SF-539 CNS = test system: SF-539 CNS
EKVX NSCLC = test system: EKVX NSCLC
SR leukemia = test system: SR leukemia
SK-MEL-5 melanoma = test system: SK-MEL-5 melanoma
SK-MEL-28 melanoma = test system: SK-MEL-28 melanoma
A549 NSCLC = test system: A549 NSCLC
OVCAR-8 ovarian = test system: OVCAR-8 ovarian
NCI-H522 lung = test system: NCI-H522 lung

Compound | GI50 (T-47D breast) | TGI (T-47D breast) | GI50 (RXF 393 renal) | TGI (RXF 393 renal) | GI50 (SF-539 CNS) | TGI (SF-539 CNS) | GI50 (EKVX NSCLC) | TGI (EKVX NSCLC) | GI50 (SR leukemia) | TGI (SR leukemia) | GI50 (SK-MEL-5 melanoma) | TGI (SK-MEL-5 melanoma) | GI50 (SK-MEL-28 melanoma) | TGI (SK-MEL-28 melanoma) | GI50 (A549 NSCLC) | TGI (A549 NSCLC) | GI50 (OVCAR-8 ovarian) | TGI (OVCAR-8 ovarian) | GI50 (NCI-H522 lung) | TGI (NCI-H522 lung)
CS(=O)(=O)CCNCc1ccc(-c2ccc3ncnc(Nc4ccc(OCc5ccccc5)c(Br)c4)c3c2)o1 | 0.821 µM | 17.4 µM | 3.71 µM | 8.19 µM | 5.41 µM | 13.2 µM | 0.526 µM | > 25 µM | 8.49 µM | > 23.3 µM | 3.44 µM | 6.71 µM | 4.5 µM | 9.08 µM | 8.81 µM | > 25 µM | 9.62 µM | > 25 µM | 3.86 µM | 10.6 µM
CCN(Cc1ccccc1)c1ccc(CO)c(Cl)c1 | 0.278 µM | 2.25 µM | 6.01 µM | > 49.7 µM | 30.2 µM | > 100 µM | 20.1 µM | 74.5 µM | > 52.1 µM | > 100 µM | 5.83 µM | 28.7 µM | 29.2 µM | > 100 µM | 2.18 µM | 25.4 µM | 12.1 µM | > 100 µM | 17.4 µM | 63.4 µM
C=C(C)[C@@H]1CC[C@]2(C(=O)O)CC[C@]3(C)[C@H](CC[C@@H]4[C@@]5(C)CCC(NC(=O)c6cccc(OC(C)=O)c6OC(C)=O)C(C)(C)[C@@H]5CC[C@]43C)[C@@H]12 (stereo not given in full) | 0.628 µM | > 100 µM | 1 µM | 3.12 µM | 0.576 µM | 2.5 µM | 0.918 µM | > 100 µM | 0.568 µM | 3.14 µM | 0.48 µM | 1.67 µM | 0.46 µM | 3.03 µM | 0.409 µM | 2.47 µM | 0.996 µM | 3.24 µM | 0.371 µM | 1.62 µM
COC(=O)c1cc2c3ccccc3n3c(=O)c4cc5ccccc5nc4c(n1)c23 | > 100 µM | > 100 µM | > 100 µM | > 100 µM | > 100 µM | > 100 µM | > 100 µM | > 100 µM | > 100 µM | > 100 µM | > 100 µM | > 100 µM | > 100 µM | > 100 µM | > 100 µM | > 100 µM | > 100 µM | > 100 µM | > 100 µM | > 100 µM
C=C1C(C2(C)C(OC(C)=O)CC(=O)OC(C)(COC(C)=O)C2CC(=O)OC)C(OC=O)C(OC(=O)C(O)C(C)CC)C2(C)C(c3ccoc3)CC(=O)C12O (stereo not given) |  | > 100 µM |  | 6.48 µM |  | > 31.6 µM |  | > 100 µM |  | > 100 µM |  | > 100 µM |  | > 100 µM |  | > 100 µM |  | > 100 µM |  | > 100 µM
CCN(CC)CCC(=O)c1ccc(C)cc1 |  | 39.8 µM |  | 31.1 µM |  | > 100 µM |  | 86.8 µM |  | 82.6 µM |  | 25.8 µM |  | 29.9 µM |  | > 100 µM |  | > 100 µM |  | 32.7 µM
C=C1C(=O)O[C@H]2[C@H]1CC/C(COC(=O)c1cc3ccccc3o1)=C\CC[C@@]1(C)O[C@@H]21 | 1.35 µM | 3.32 µM | 1.43 µM | 2.87 µM | 1.45 µM | 2.84 µM | 2.02 µM | 6.12 µM | 1.15 µM | 5.33 µM | 1.52 µM | 2.89 µM | 1.75 µM | 3.59 µM | 2.91 µM | 12 µM | 2.43 µM | 7.63 µM | 0.68 µM | 2.39 µM
Cc1occc1C(=S)Nc1ccc(Cl)c(C(=O)OC(C(C)C)C(C)C)c1 |  | 18.1 µM |  | 33.7 µM |  | 35 µM |  | 27.3 µM |  | 28 µM |  | 32 µM |  | 29.8 µM |  | 31.8 µM |  | 26.5 µM |  | 25.9 µM
O=c1cc(N2CCN(CCCCCOc3cc(O)c4c(=O)cc(-c5ccccc5)oc4c3)CC2)c2ccccc2o1 | > 100 µM | > 100 µM | > 100 µM | > 100 µM | 35.6 µM | > 100 µM | > 100 µM | > 100 µM | 42.9 µM | > 100 µM | 28 µM | > 100 µM | 61.8 µM | > 100 µM | > 100 µM | > 100 µM | > 100 µM | > 100 µM | > 100 µM | > 100 µM
CCCN(CCC)c1ccc(/C=C/c2ccc3cc(OCC)ccc3n2)cc1 | 15.9 µM | > 100 µM | 5.23 µM | 64.1 µM | > 100 µM | > 100 µM | 91.4 µM | > 100 µM | 13.8 µM | > 100 µM | 23.6 µM | > 100 µM | > 100 µM | > 100 µM | 75.4 µM | > 100 µM | 99.2 µM | > 100 µM | 35.1 µM | > 100 µM
Cc1nc2sc(C(=O)Nc3cccc4ccccc34)c(N)c2cc1C(O)c1ccccc1 (stereo not given) | 0.0527 µM | 88.6 µM | 0.0307 µM | 24.7 µM | 0.0341 µM | 0.29 µM | 0.375 µM | 37.5 µM | 0.04 µM | > 43 µM | 0.0993 µM | 0.717 µM | 1.14 µM | 24.2 µM | 0.0916 µM | > 100 µM | 0.101 µM | 71.2 µM | 0.048 µM | 11.4 µM
